From patent EP3492067A1, “TYPE-17 COLLAGEN PRODUCTION PROMOTER” (Tomoike Industrial (H.K.) Limited, priority 2016, dated 2018)
≈ marks a conversion by molar mass, not a printed value.

Assays:
[1] = tested on: Type-17 collagen; settings: eft-400 skin model
Procedure: (§1) A tissue containing DMSO was prepared as a control.
(§2) The lysates of cultured tissue were subjected to western blotting using an anti-Type-17 collagen antibody (ab95123, Abcam).

[2] = physchem; settings: distilled water
Procedure: (§3) A test for confirming water solubility of the pterostilbene glycoside described above was performed. More specifically, solubility in 100 ml of distilled water at room temperature was measured. Pterostilbene (aglycone) was used as a control.

[3] = tested on: Type-17 collagen; experiment: Western blotting of Type-17 collagen protein production in skin model cells; settings: Homo sapiens, 168 h, read-out: expression amount of Type-17 collagen, increase in comparison with the control
Procedure: as §1, §2

[4] = Water solubility test in distilled water
Procedure: as §3

Structure (SMILES) | amount of Type-17 collagen contained in skin model cells, increase compared with the control (Ctrl) [1] [times] | solubility [2] [µg/mL] | fold induction at 25 µM [3] | fold induction at 50 µM [3] | solubility [4] [µg/mL]
COc1cc(/C=C/c2ccc(O[C@@H]3O[C@H](CO)[C@@H](O[C@H]4O[C@H](CO)[C@@H](O)[C@H](O)[C@H]4O)[C@H](O)[C@H]3O)cc2)cc(OC)c1 [pterostilbene diglycoside] | 1.2 | ~13 (≈ 22.4 µM) |  |  | 
COc1cc(/C=C/c2ccc(O[C@@H]3O[C@H](CO)[C@@H](O)[C@H](O)[C@H]3O)cc2)cc(OC)c1 [pterostilbene monoglycoside] |  | ~60 (≈ 143 µM) | ~1.4 | ~1.6 | 
COc1cc(/C=C/c2ccc(O[C@@H]3O[C@H](CO)[C@@H](O[C@H]4O[C@H](CO)[C@@H](O[C@H]5O[C@H](CO)[C@@H](O)[C@H](O)[C@H]5O)[C@H](O)[C@H]4O)[C@H](O)[C@H]3O)cc2)cc(OC)c1 [pterostilbene triglycoside] | 1.6 | ~300000 (≈ 404000 µM) |  |  | 
COc1cc(/C=C/c2ccc(O)cc2)cc(OC)c1 [pterostilbene, Pterostilbene] |  |  | ~1.1 | ~1.4 | ~5 (≈ 19.5 µM)
